Test results reported in US8461305B2, “L-fucose α1→6 specific lectin” (J-Oil Mills, Inc., priority 2008, dated 2013).

What was measured:
Assay type in all cases: cell-based
[1] = test system: human (A, B, O) erythrocytes; assay: hemagglutinating activity test, human (A, B, O) erythrocytes; conditions: for hemagglutinating activity, titer (1.0 mg/ml): lectin 1.0 mg/ml
Excerpt: (§1) PTL and SRL were subjected to hagglutinating activity test for rabbit, equine, pig, sheep, human (A, B, O), and actinase E-treated rabbit erythrocytes.

[2] = test system: sheep erythrocytes; assay: hemagglutinating activity test, sheep erythrocytes; conditions: for hemagglutinating activity, titer (1.0 mg/ml): lectin 1.0 mg/ml
Excerpt: (§2) The sugar binding specificity of lectin also can be confirmed by using erythrocytes that can be specifically agglutinated by the lectin to investigate the sugar type that may inhibit the agglutination of the erythrocytes and the concentration thereof.
as §1

[3] = test system: actinase E-treated rabbit erythrocytes; assay: hemagglutinating activity test, actinase E-treated rabbit erythrocytes; conditions: for hemagglutinating activity, titer (1.0 mg/ml): lectin 1.0 mg/ml
Excerpt: as §2, §1

[4] = test system: rabbit erythrocytes; assay: hemagglutinating activity test, rabbit erythrocytes; conditions: for hemagglutinating activity, titer (1.0 mg/ml): lectin 1.0 mg/ml
Excerpt: as §2, §1

[5] = test system: equine erythrocytes; assay: hemagglutinating activity test, equine erythrocytes
Excerpt: as §2, §1

Substance | Minimum hemagglutinating concentration ([1]; Human A erythrocytes) | hemagglutinating activity, titer (1.0 mg/ml) ([1]; Human A erythrocytes) | Minimum hemagglutinating concentration ([1]; Human B erythrocytes) | hemagglutinating activity, titer (1.0 mg/ml) ([1]; Human B erythrocytes) | Minimum hemagglutinating concentration ([1]; Human O erythrocytes) | hemagglutinating activity, titer (1.0 mg/ml) ([1]; Human O erythrocytes) | Minimum hemagglutinating concentration [2] | hemagglutinating activity, titer (1.0 mg/ml) [2] | Minimum hemagglutinating concentration [3] | hemagglutinating activity, titer (1.0 mg/ml) [3] | Minimum hemagglutinating concentration [4] | hemagglutinating activity, titer (1.0 mg/ml) [4] | Minimum hemagglutinating concentration [5] | hemagglutinating activity, titer (1.0 mg/ml) ([5]; lectin 1.0 mg/ml)
Pholiota terrestris lectin [PTL, novel L-fucose α1→6 specific lectin purified from the mushroom Pholiota terrestris] | >333 µg/mL | <1 titer | >333 µg/mL | <1 titer | >333 µg/mL | <1 titer | >333 µg/mL | <1 titer | 0.13 µg/mL | 2560 titer | 5.21 µg/mL | 64 titer |  | 
Stropharia rugosoannulata lectin [SRL, novel L-fucose α1→6 specific lectin purified from the mushroom Stropharia rugosoannulata] | >333 µg/mL | <1 titer | >333 µg/mL | <1 titer | >333 µg/mL | <1 titer | >333 µg/mL | <1 titer | 0.651 µg/mL | 512 titer | 5.21 µg/mL | 64 titer | 2.61 µg/mL | 128 titer
